≈ marks a conversion by molar mass, not a printed value.
Key:
[1] = tested on: clinical drug-resistant strain 040 of mycobacterium tuberculosis; experiment: microbe, parasite or virus in culture; type: cell-based; conditions: read-out: MIC, M.tb stains (drug-resistant strains) 40
[2] = tested on: clinical drug-resistant strain 004 of mycobacterium tuberculosis; experiment: microbe, parasite or virus in culture; type: cell-based; conditions: read-out: MIC, M.tb stains (drug-resistant strains) 004

Row | SMILES | MIC [1] [µg/mL] | MIC [2] [µg/mL]
1 | COc1cc2ccc(Br)cc2cc1C(c1cccc(C)c1)C(O)(CCN(C)C)c1cccc2ccccc12 (stereo not shown) [Compound 37, 1-(3-methylphenyl)-2-(1-naphthyl)-1-[2-(7-bromo-3-methoxy)naphthyl]-4-(N,N-dimethylamino)-butan-2-ol] | 0.125 (≈ 0.22 µM) | 0.5 (≈ 0.879 µM)
2 | COc1cc2ccc(Br)cc2cc1C(c1cccc(Cl)c1)C(O)(CCN(C)C)c1cccc2ccccc12 (stereo not shown) [Compound 35, 1-(3-chlorophenyl)-2-(1-naphthyl)-1-[2-(7-bromo-3-methoxy)naphthyl]-4-(N,N-dimethylamino)-butan-2-ol] | 0.125 (≈ 0.212 µM) | 0.5 (≈ 0.849 µM)
